Read-outs that look alike come from different tables or passages of the source.
Legend:
[1] = Oral PK (plasma T) of TSX-002, TSX-007, TSX-009, unformulated T and TU in female beagle dogs, fasted or fed; assay type: in vivo; conditions: for AUC / Cmax / Tmax: female, beagle, dog, plasma, po, 7.5 mg/kg; for AUC / Cmax / Tmax / Av. AUC (plasma T) / Av. Cmax (plasma T) / Av. Tmax: oral 7.5 mg/kg; for AUC: read-out: Av. AUC (plasma T); for Cmax: read-out: Av. Cmax (plasma T); for Tmax: read-out: Av. Tmax
Method: In vivo pK data TSX-002 (native T:Lipid), TSX-007 (native T:Lipid:TPGS (20% w/w of T)), and TSX-009 (TU:Lipid:TPGS (20% w/w of T)). TSX-002, TSX-007, and TSX-009 formulations were orally administered to female beagle dogs under fasted or fed conditions. Fasted condition means animals were fasted overnight, dosing was performed the subsequent morning, and food was served two hours post-dosing. Animals were allowed access to food for another two hours, and monitored if they ate the food. Fed condition means animals were fasted overnight, dosing was performed the subsequent morning, and food was served 15 min. post-dosing. Animals were allowed access to food for another two hours, and monitored if they ate the food. Blood samples were taken, at 0, 0.5, 1, 2, 3, 4, 6, 8, 12 and 24 hours. The administered dosage of TU was 7.5 mg/kg (TU/body weight). Plasma samples were analyzed on Day 1 and Day 7. Pharmacokinetic data for treatment days 1 and 7, under fasting and fed conditions are reported for unformulated T in Table 2; unformulated TU in Table 3; TSX-002 (T:Lipid) in Table 4; TSX-007 (native T:Lipid:TPGS (20% w/w of T)) in Table 5; and TSX-009 (TU:Lipid:TPGS (20% w/w of T)) in Table 6.
(§1) In vivo pK data for TSX-010 (TU:Lipid, 1:1), TSX-011 (TU:Lipid, 1:2), and TSX-012 (TU:Lipid, 1:4) in female Beagle dogs. Unformulated TU, TSX-010, TSX-011, and TSX-012 formulations. In addition to tracking plasma T levels, blood samples taken by jugular vein puncture at 0, 0.5, 1, 2, 3, 4, 6, 8, 12, 24 hours, and the following pharmacokinetic (PK) parameters were analyzed for each formulation and unformulated testosterone and testosterone undecanoate. Table 18 contains PK data for unformulated testosterone and testosterone undecanoate at days 1 and 7, under fasted and fed conditions. Tables 19 and 20 contain PK data for the TSX-010, TSX-011, and TSX-012 formulations under fasted (Table 19) and fed (Table 20) conditions.

[2] = Plasma testosterone concentrations and PK after oral TSX-010, TSX-011, TSX-012 or unformulated TU in female beagle dogs; assay type: in vivo; conditions: TU 7.5 mg/kg
Method: Plasma testosterone concentrations after administration of TSX-010 (TU:Lipid, 1:1), TSX-011 (TU:Lipid, 1:2), and TSX-012 (TU:Lipid, 1:4). Unformulated TU, TSX-010, TSX-011, and TSX-012 formulations were orally administered under either fasted or fed conditions. The fasted condition means animals were fasted overnight, dosing was performed the subsequent morning, and food was served two hours post-dosing. Animals were allowed access to food for another two hours, and monitored if they ate the food. The fed condition means animals were fasted overnight, dosing was performed the subsequent morning, and food was served 15 min. post-dosing. Animals were allowed access to food for another two hours, and monitored if they ate the food. For unformulated TU, blood samples were taken by venipuncture of the jugular vein at 0, 0.5, 1, 2, 3, 4, 6, 8, 12, and 24 hours in both fed and fasted conditions. For TU formulations like TSX-010, TSX-011, TSX-012, blood samples were taken by venipuncture of the jugular vein at 0, 4, 6, 8, 10, 12, 14, 16, 18 and 24 hours in fasted conditions and at 0, 1, 2, 4, 6, 8, 10, 12, 16 and 24 hours in fed conditions in femalebeagle dogs. The administered dosages of TU were either 1.875, 3.75, or 7.5 mg/kg (TU/body weight). Plasma testosterone concentration data, was obtained at day 1 for formulations TSX-010, TSX-011, and TSX-012, and days 1 and 7, for unformulated TU.
as §1

C[C@]12CC[C@H]3[C@@H](CCC4=CC(=O)CC[C@@]43C)[C@@H]1CC[C@@H]2O [Unformulated T, testosterone]
AUC ([1]; day 1, fasted): 28.7 ± 9.44 ng·h/mL | Cmax ([1]; day 1, fasted): 6.39 ± 2.47 ng/mL | Tmax ([1]; day 1, fasted): 2.17 ± 0.98 h | AUC ([1]; day 1, fed): 36.8 ± 19.4 ng·h/mL | Cmax ([1]; day 1, fed): 9.85 ± 5.8 ng/mL | Tmax ([1]; day 1, fed): 3.67 ± 2.58 h | AUC ([1]; day 7, fasted): 11.2 ± 3.28 ng·h/mL | Cmax ([1]; day 7, fasted): 2.7 ± 0.78 ng/mL | Tmax ([1]; day 7, fasted): 2.5 ± 1.22 h | AUC ([1]; day 7, fed): 43 ± 43.9 ng·h/mL | Cmax ([1]; day 7, fed): 13 ± 13.6 ng/mL | Tmax ([1]; day 7, fed): 3.5 ± 4.42 h

CCCCCCCCCCC(=O)O[C@H]1CC[C@H]2[C@@H]3CCC4=CC(=O)CC[C@]4(C)[C@H]3CC[C@]12C [Unformulated TU, testosterone undecanoate]
Plasma profiles on Day 7 ([1]; Day 7, compared to responders to proliposomal TU formulations): plasma profiles dropped significantly | Increase in AUC and Cmax in the presence of food ([1]; fed compared to fasted state): two-fold increase in AUC and Cmax | Av. AUC (plasma T) ([1]; day 1, fasted): 16.63 ± 27.15 ng·h/mL | Av. Cmax (plasma T) ([1]; day 1, fasted): 2.34 ± 3.94 ng/mL | Av. Tmax ([1]; day 1, fasted): 6.50 ± 4.43 h | Av. AUC (plasma T) ([1]; day 1, fed): 108.41 ± 42.73 ng·h/mL | Av. Cmax (plasma T) ([1]; day 1, fed): 33.83 ± 5.06 ng/mL | Av. Tmax ([1]; day 1, fed): 4.0 ± 1.55 h | Av. AUC (plasma T) ([1]; day 7, fasted): 30.88 ± 35.98 ng·h/mL | Av. Cmax (plasma T) ([1]; day 7, fasted): 4.38 ± 5.12 ng/mL | Av. Tmax ([1]; day 7, fasted): 8.0 ± 5.66 h | Av. AUC (plasma T) ([1]; day 7, fed): 20.50 ± 16.59 ng·h/mL | Av. Cmax (plasma T) ([1]; day 7, fed): 5.37 ± 3.78 ng/mL | Av. Tmax ([1]; day 7, fed): 4.17 ± 3.25 h | Animals with plasma T > 0.5 ng/mL, percent ([2]; fasted, day 1): (33.3%) | Animals with plasma T > 0.5 ng/mL (responders/treated) ([2]; fasted, day 1, within 24 h): 2/6 | Animals with plasma T > 0.5 ng/mL, percent ([2]; fasted, day 7): (50%) | Animals with plasma T > 0.5 ng/mL (responders/treated) ([2]; fasted, day 7, within 24 h): 3/6 | Animals with plasma T > 0.5 ng/mL, percent ([2]; fed, day 1): (100%) | Animals with plasma T > 0.5 ng/mL (responders/treated) ([2]; fed, day 1, within 24 h): 6/6 | Animals with plasma T > 0.5 ng/mL, percent ([2]; fed, day 7): (100%) | Animals with plasma T > 0.5 ng/mL (responders/treated) ([2]; fed, day 7, within 24 h): 5/6
